Data as given in PubChem BioAssay AID1963828 (Molecular Pharmacology Branch, DTP, NCI, 2024).

System: 991263-137-R1-J2-PDC complex spheroid viability
Assay: Anticancer human tumor 991263-137-R1-J2-PDC patient-derived colon adenocarcinoma cell line growth inhibition [POLQ]
Conditions: for IC50: curve of first compound; for viability, T/C: stronger effect = lower value
Protocol: Multicellular complex tumor spheroid response to Polymerase (POL) inhibitors (novobiocin, ART-558, RP6685) in combination with a variety of drugs and investigational agents in selected tumor cell lines
The POL inhibitors (novobiocin, ART-558, and RP6685) were evaluated both individually and in combination with standard of care and investigational anticancer small molecules within a complex spheroid model of solid tumors. . Complex spheroids include a stromal component modeled by human endothelial cells (HUVEC) and fibroblasts modeled by human mesenchymal stem cells (MSCs). The concentration ranges selected for each drug and investigational agent were based upon clinically achievable concentrations if the clinical Cmax of the agent was known.
Compounds. The drugs and investigational agents: novobiocin (NSC847541), ART-558 (NSC835418), RP-6685 (NSC848927), peposertib (NSC802822), ceralasertib (NSC780249), elimusertib (NSC800525), camonsertib (NSC841442), AZD-1390 (NSC803789), olaparib (NSC753686), talazoparib (NSC767125), rucaparib (NSC756644), sotorasib (NSC818433), MRTX-1133 (NSC836407), SN-38 (NSC673596), topotecan (NSC609699), epotoside (NSC141540), doxorubicin (NSC123127), gemcitabine (NSC613327), 5-fluorouracil (NSC19893), paclitaxel (NSC125973), vemurafenib (NSC761431), MSA-2 (NSC828583), SN-011 (NSC837082), adavosertib (NSC754352), prexasertib (NSC758257), carboplatin (NSC241240) and oxaliplatin (NSC266046), were obtained from the National Cancer Institute (NCI) Developmental Therapeutics Program Chemical Repository (21). The FDA-approved anticancer drug set is available from the Developmental Therapeutics Program at https://dtp.cancer.gov/organization/dscb/obtaining/. […] The stock solutions were prepared in dimethyl sulfoxide (DMSO, Sigma-Aldrich, St. Louis, MO, cat. D2650), except for the platinum compounds which were prepared in saline (Quality Biological, Gaithersburg, MD, cat. 114-055-101), at 800-fold the tested concentration and stored at -70 degrees C prior to their use. All drugs and investigational agents were tested over a range starting from a high concentration at or near the clinical Cmax and decreasing in half-log increments. If the clinical Cmax for an agent had not been determined, the highest concentration tested was 10 microM, except for SN-38, which was tested at a high concentration of 1 microM.
Cell Culture. All cells were maintained in an incubator at 37 degrees C and 5% CO2 with 95% humidity. The PDC lines were cultured according to standard operating procedures established by the NCI PDMR (https://pdmr.cancer.gov). Table 3 of the manuscript, lists the cell lines along with the number of the three cell types plated to form the mct-spheroids and media for tumor cell growth. After thawing, all PDC lines, except 997537-175-T-J1-PDC and 415267-285-R-J2-PDC, were cultured in Matrigel-coated flasks prepared with a working solution of 1X Ham's F-12 nutrient mix, without supplementation (Thermo Fisher Scientific, cat. 11765054), 100 U/mL penicillin-streptomycin (Thermo Fisher Scientific, cat. 15140122), and 2.5% Matrigel (Corning Inc., Corning, NY, cat. 354248) for the first three passages. The two PDC lines 997537-175-T-J1-PDC and 415267-285-R-J2-PDC were cultured on uncoated flasks. The 857933-349-R-J2-PDC line was cultured in 6C/Colon 1B media containing advanced DMEM/F-12 (Thermo Fisher Scientific, cat. 12634028), 10 mM HEPES (Thermo Fisher Scientific, cat. 15630080), 1X GlutaMAX supplement (Thermo Fisher Scientific, cat. 35050061), 0.1 mg/mL primocin (InvivoGen, San Diego, CA, cat. ant-pm-2), 10% defined fetal bovine serum, heat inactivated (HyClone Laboratories Inc., Logan, UT, cat. SH30070.03HI), 50% L-WRN conditioned media (ATCC, cat. CRL-3276), 1.25 mM N-Acetyl-L-cysteine (Sigma-Aldrich, cat. A9165), 10 mM nicotinamide (Sigma-Aldrich, cat. N0636), 1X B-27 supplement (Thermo Fisher Scientific, cat. 17504044), 1X N-2 supplement (Thermo Fisher Scientific, cat. […]

[1] = second compound 0.0316 µM, first compound 0.0316 µM
[2] = second compound 0.0316 µM, first compound 0.1 µM
[3] = second compound 0.0316 µM, first compound 0.316 µM
[4] = second compound 0.0316 µM, first compound 1 µM
[5] = second compound 0.0316 µM, first compound 3.16 µM
[6] = second compound 0.0316 µM, first compound 10 µM
[7] = second compound 0.1 µM, first compound 0.0316 µM
[8] = second compound 0.1 µM, first compound 0.1 µM
[9] = second compound 0.1 µM, first compound 0.316 µM
[10] = second compound 0.1 µM, first compound 1 µM
[11] = second compound 0.1 µM, first compound 3.16 µM
[12] = second compound 0.1 µM, first compound 10 µM
[13] = second compound 0.316 µM, first compound 0.0316 µM
[14] = second compound 0.316 µM, first compound 0.1 µM
[15] = second compound 0.316 µM, first compound 0.316 µM
[16] = second compound 0.316 µM, first compound 1 µM
[17] = second compound 0.316 µM, first compound 3.16 µM
[18] = second compound 0.316 µM, first compound 10 µM
[19] = second compound 1 µM, first compound 0.0316 µM
[20] = second compound 1 µM, first compound 0.1 µM
[21] = second compound 1 µM, first compound 0.316 µM
[22] = second compound 1 µM, first compound 1 µM
[23] = second compound 1 µM, first compound 3.16 µM
[24] = second compound 1 µM, first compound 10 µM
[25] = second compound 3.16 µM, first compound 0.0316 µM
[26] = second compound 3.16 µM, first compound 0.1 µM
[27] = second compound 3.16 µM, first compound 0.316 µM
[28] = second compound 3.16 µM, first compound 1 µM
[29] = second compound 3.16 µM, first compound 3.16 µM
[30] = second compound 3.16 µM, first compound 10 µM
[31] = second compound 10 µM, first compound 0.0316 µM
[32] = second compound 10 µM, first compound 0.1 µM
[33] = second compound 10 µM, first compound 0.316 µM
[34] = second compound 10 µM, first compound 1 µM
[35] = second compound 10 µM, first compound 3.16 µM
[36] = second compound 10 µM, first compound 10 µM
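Note: spheroids exposed to compounds for 7 days before readout.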
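Throughout, for viability, T/C: 100% = DMSO vehicle control viability.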

Structure (SMILES): Nc1ccn(C2OC(CO)C(O)C2(F)F)c(=O)n1 (centres undefined) + COC1C(OC(N)=O)C(O)C(Oc2ccc3c(O)c(NC(=O)c4ccc(O)c(CC=C(C)C)c4)c(=O)oc3c2C)OC1(C)C
- IC50 (second compound 0.0316 µM): 553 nM
- IC50 (second compound 0.1 µM): 898 nM
- IC50 (second compound 0.316 µM): 1920 nM
- IC50 (second compound 1 µM): 860 nM
- IC50 (second compound 3.16 µM): 736 nM
- IC50 (second compound 10 µM): 1110 nM
- viability, T/C [1]: 77.8%
- viability, T/C [2]: 56%
- viability, T/C [3]: 56.4%
- viability, T/C [4]: 46.9%
- viability, T/C [5]: 47.6%
- viability, T/C [6]: 36.6%
- viability, T/C [7]: 67.6%
- viability, T/C [8]: 60.5%
- viability, T/C [9]: 57.5%
- viability, T/C [10]: 46.7%
- viability, T/C [11]: 45.5%
- viability, T/C [12]: 42%
- viability, T/C [13]: 65.1%
- viability, T/C [14]: 70.8%
- viability, T/C [15]: 62%
- viability, T/C [16]: 54.1%
- viability, T/C [17]: 46.9%
- viability, T/C [18]: 33%
- viability, T/C [19]: 72.8%
- viability, T/C [20]: 69.9%
- viability, T/C [21]: 53.7%
- viability, T/C [22]: 48.5%
- viability, T/C [23]: 43.4%
- viability, T/C [24]: 35.5%
- viability, T/C [25]: 72.1%
- viability, T/C [26]: 63.5%
- viability, T/C [27]: 58%
- viability, T/C [28]: 48%
- viability, T/C [29]: 39.1%
- viability, T/C [30]: 37.9%
- viability, T/C [31]: 69.4%
- viability, T/C [32]: 75.7%
- viability, T/C [33]: 59.7%
- viability, T/C [34]: 53.3%
- viability, T/C [35]: 38.2%
- viability, T/C [36]: 34.2%

Structure (SMILES): O=c1[nH]cc(F)c(=O)[nH]1 + COC1C(OC(N)=O)C(O)C(Oc2ccc3c(O)c(NC(=O)c4ccc(O)c(CC=C(C)C)c4)c(=O)oc3c2C)OC1(C)C
- IC50 (second compound 0.0316 µM): > 10000 nM
- IC50 (second compound 0.1 µM): > 10000 nM
- IC50 (second compound 0.316 µM): > 10000 nM
- IC50 (second compound 1 µM): > 10000 nM
- IC50 (second compound 3.16 µM): > 10000 nM
- IC50 (second compound 10 µM): > 10000 nM
- viability, T/C [1]: 94%
- viability, T/C [2]: 101%
- viability, T/C [3]: 91%
- viability, T/C [4]: 94%
- viability, T/C [5]: 87%
- viability, T/C [6]: 79.3%
- viability, T/C [7]: 103%
- viability, T/C [8]: 104%
- viability, T/C [9]: 108%
- viability, T/C [10]: 82.1%
- viability, T/C [11]: 95.1%
- viability, T/C [12]: 62.5%
- viability, T/C [13]: 87.4%
- viability, T/C [14]: 118%
- viability, T/C [15]: 76.6%
- viability, T/C [16]: 92.6%
- viability, T/C [17]: 88.1%
- viability, T/C [18]: 84.4%
- viability, T/C [19]: 99%
- viability, T/C [20]: 97.8%
- viability, T/C [21]: 101%
- viability, T/C [22]: 82.6%
- viability, T/C [23]: 77.3%
- viability, T/C [24]: 69.4%
- viability, T/C [25]: 65%
- viability, T/C [26]: 86.3%
- viability, T/C [27]: 97.9%
- viability, T/C [28]: 92.3%
- viability, T/C [29]: 82.3%
- viability, T/C [30]: 74.9%
- viability, T/C [31]: 90.6%
- viability, T/C [32]: 107%
- viability, T/C [33]: 87.3%
- viability, T/C [34]: 83.7%
- viability, T/C [35]: 90.3%
- viability, T/C [36]: 78.3%
